Assay results published in ChEMBL document CHEMBL1201862, “PubChem BioAssay data set” (2004).
Calls of active or inactive are those of the source.

Columns and labels:
Escherichia coli = experiment: microbe, parasite or virus in culture
[1] = target: Voltage-gated inwardly rectifying potassium channel KCNH2 (Homo sapiens, UniProt Q12809); details: Potency;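 also: confirmatory quantitative high-throughput screen measuring inhibition of hERG channel activity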
Mu-type opioid receptor = Mu-type opioid receptor (Homo sapiens, UniProt P35372); experiment: (§1) Counterscreen for agonists of heterodimerization of the mu 1 (OPRM1) and delta 1 (OPRD1) opioid receptors: Luminescence-based cell-based high throughput dose response assay to identify agonists of OPRM1 homodimerization.; format: functional
Chain of Mu-type opioid receptor (P35372 whole entry): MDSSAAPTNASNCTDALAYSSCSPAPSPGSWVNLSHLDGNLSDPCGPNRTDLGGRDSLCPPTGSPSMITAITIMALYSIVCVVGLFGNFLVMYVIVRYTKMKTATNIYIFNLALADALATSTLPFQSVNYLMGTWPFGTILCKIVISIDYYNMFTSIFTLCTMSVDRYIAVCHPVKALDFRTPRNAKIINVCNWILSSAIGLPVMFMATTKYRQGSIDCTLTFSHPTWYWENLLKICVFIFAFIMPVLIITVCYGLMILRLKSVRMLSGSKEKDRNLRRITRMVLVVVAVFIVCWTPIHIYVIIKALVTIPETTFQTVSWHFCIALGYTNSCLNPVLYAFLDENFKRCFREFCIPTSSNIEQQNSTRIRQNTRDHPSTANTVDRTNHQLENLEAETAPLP

[2] = target: 5-hydroxytryptamine receptor 5A (Homo sapiens, UniProt P47898); experiment: Counterscreen for agonists of OPRM1-OPRD1 heterodimerization: luminescence-based cell-based high throughput dose response assay to identify agonists of 5-hydroxytryptamine (serotonin) 5A receptor (HTR5A). [Related pubchem assays (depositor defined):AID504326, AID504355, AID504692, AID504904, AID504905]; format: functional
Chain of 5-hydroxytryptamine receptor 5A (P47898 whole entry): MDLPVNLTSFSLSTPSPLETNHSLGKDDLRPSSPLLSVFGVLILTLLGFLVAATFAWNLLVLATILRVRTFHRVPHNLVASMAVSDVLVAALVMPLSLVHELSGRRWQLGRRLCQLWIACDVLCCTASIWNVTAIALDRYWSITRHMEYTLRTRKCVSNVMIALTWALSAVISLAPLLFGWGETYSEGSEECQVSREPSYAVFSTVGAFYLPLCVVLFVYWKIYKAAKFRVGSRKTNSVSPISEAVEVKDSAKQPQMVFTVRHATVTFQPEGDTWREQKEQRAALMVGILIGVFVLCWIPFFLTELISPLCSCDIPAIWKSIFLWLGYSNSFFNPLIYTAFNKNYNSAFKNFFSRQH

Vero = experiment: mammalian cell viability reduction – secondary assay, cytotoxicity control for West Nile virus antiviral project, dose response (AID 1650); format: functional; details: Chlorocebus sabaeus
Cysteine protease ATG4B = target: T1, Cysteine protease ATG4B (Homo sapiens, UniProt Q9Y4P1); format: functional;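 also: Fluorescence-based dose-response confirmation assay measuring inhibition of ATG4B activity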
T1 sequence (Q9Y4P1 whole entry): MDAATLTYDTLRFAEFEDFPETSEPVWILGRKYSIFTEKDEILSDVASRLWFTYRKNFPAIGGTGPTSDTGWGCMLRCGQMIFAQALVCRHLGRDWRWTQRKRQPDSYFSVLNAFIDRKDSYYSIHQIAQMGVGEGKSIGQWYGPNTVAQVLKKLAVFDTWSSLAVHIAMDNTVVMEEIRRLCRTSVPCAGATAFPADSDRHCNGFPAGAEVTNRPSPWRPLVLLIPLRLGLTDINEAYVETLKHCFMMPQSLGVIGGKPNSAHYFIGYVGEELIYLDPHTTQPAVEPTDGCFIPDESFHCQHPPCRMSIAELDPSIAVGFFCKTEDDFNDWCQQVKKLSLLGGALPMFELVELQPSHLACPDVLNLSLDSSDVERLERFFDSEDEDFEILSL

Phospholipase A2 = Phospholipase A2 (Homo sapiens, UniProt P04054); format: functional;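 also: confirmatory dose-response counterscreen on phospholipase A2, testing hits that came from an ultra-high-throughput screen for ATG4B inhibitors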
Chain of Phospholipase A2 (P04054 whole entry): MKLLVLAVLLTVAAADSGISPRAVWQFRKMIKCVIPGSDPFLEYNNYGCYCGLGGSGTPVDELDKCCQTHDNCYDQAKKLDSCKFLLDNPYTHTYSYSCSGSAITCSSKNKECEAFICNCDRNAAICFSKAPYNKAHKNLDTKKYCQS

[3] = target: DNA damage-inducible transcript 3 protein (Mus musculus, UniProt P35639); format: functional, Cricetulus griseus
Chain of DNA damage-inducible transcript 3 protein (P35639 whole entry): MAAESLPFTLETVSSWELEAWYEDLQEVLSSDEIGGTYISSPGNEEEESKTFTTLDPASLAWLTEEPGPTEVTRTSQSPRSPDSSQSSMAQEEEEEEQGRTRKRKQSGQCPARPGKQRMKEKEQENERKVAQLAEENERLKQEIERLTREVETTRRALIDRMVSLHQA

X-box-binding protein 1 = X-box-binding protein 1 (Homo sapiens, UniProt P17861); format: functional, Cricetulus griseus;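 also: confirmatory dose-response counter-screen serving a CHOP assay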
Chain of X-box-binding protein 1 (P17861 whole entry): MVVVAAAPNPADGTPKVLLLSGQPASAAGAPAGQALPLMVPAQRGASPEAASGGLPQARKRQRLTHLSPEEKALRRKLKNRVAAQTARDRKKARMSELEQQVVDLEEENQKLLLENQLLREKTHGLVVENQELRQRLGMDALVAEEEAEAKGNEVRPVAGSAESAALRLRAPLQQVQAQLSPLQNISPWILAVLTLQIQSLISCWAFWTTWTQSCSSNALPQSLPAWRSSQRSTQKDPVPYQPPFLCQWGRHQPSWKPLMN

[4] = target: Delta-type opioid receptor (Homo sapiens, UniProt P41143); experiment: as §1, with “of OPRD1” for “of OPRM1”, “homodimerization. [Related pubchem assays (depositor defined):AID504326, AID504355, AID504692, AID504904, AID504905]” for “homodimerization.”; format: functional
Chain of Delta-type opioid receptor (P41143 whole entry): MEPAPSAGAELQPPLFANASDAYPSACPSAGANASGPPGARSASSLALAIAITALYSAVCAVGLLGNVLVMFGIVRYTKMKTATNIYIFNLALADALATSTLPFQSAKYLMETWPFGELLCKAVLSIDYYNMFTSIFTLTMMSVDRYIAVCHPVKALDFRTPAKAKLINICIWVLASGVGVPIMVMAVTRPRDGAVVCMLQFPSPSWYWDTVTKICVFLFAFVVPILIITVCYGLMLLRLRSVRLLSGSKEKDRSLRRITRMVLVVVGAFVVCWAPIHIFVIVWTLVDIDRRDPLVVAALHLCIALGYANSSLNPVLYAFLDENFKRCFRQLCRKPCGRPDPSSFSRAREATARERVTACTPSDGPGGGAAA

[5] = activation of miR-122 Renilla sensor silencing – cell-based, Huh7 psiCHECK-miR122, Renilla luciferase, cherry-picked, dose response (AID 651956); format: functional;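 also: huh7 hepatoma cells stably carrying a psiCHECK-2 miR-122 sensor plasmid; renilla luciferase signal reporting endogenous miR-122 activity after 48 h compound exposure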
[6] = NIH3T3 cell viability loss – ATP luminescence, mouse fibroblasts, counter-screen, dose response (AID 2010); format: functional, cell-based;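 also: cells exposed to compound for about 90 hours before reading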
[7] = Trypanosoma cruzi growth suppression in host cells – NIH3T3 host cells, beta-gal luminescence, confirmation (AID 2044); format: functional, cell-based;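 also: intracellular parasites grown in NIH/3T3 mouse fibroblasts as host cells; luminescent beta-galactosidase reporter signal from transgenic T. cruzi replicating inside host cells; inhibitors lower the luminescence signal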
[8] = general mammalian cell viability loss – inhibitor set, cherry-pick, set 2, cytotoxicity control for miR-122 modulator project, dose response (AID 720697); format: functional, cell-based
[9] = general mammalian cell viability loss – activator set, cherry-pick, cytotoxicity control for miR-122 modulator project, dose response (AID 720690); format: functional, cell-based;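 also: HEK293T human cells scored for general mammalian cytotoxicity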
[10] = target: T2, Replicative DNA helicase DnaB (Mycobacterium tuberculosis, UniProt P9WMR3); experiment: DnaB intein splicing inhibitors, dose response, biochemical, cell-free fluorescence (AID 449749); format: functional
T2 sequence (P9WMR3 whole entry): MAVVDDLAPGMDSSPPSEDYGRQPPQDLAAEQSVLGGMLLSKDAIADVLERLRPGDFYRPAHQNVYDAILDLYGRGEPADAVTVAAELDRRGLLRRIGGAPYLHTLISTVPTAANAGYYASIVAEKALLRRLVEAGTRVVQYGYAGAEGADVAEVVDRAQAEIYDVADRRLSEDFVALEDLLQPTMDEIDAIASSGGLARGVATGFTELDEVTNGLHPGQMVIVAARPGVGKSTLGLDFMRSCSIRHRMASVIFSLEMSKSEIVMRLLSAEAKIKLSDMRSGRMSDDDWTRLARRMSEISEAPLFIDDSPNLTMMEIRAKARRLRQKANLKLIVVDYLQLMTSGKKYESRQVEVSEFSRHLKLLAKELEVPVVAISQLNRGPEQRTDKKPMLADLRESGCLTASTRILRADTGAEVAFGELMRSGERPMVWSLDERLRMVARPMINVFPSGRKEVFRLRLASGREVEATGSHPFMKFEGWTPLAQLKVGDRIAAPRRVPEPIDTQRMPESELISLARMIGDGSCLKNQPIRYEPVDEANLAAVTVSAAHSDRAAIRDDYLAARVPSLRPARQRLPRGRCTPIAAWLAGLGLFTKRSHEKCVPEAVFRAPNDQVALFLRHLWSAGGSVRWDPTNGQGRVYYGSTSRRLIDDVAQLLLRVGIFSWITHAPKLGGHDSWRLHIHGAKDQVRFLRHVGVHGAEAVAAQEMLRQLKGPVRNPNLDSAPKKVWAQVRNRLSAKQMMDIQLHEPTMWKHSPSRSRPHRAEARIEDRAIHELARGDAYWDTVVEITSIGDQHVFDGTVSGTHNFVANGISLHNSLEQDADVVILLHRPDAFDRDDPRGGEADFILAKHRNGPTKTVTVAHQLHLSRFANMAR

[11] = target: DNA repair protein RAD52 homolog (Homo sapiens, UniProt P43351); format: functional, biochemical
Chain of DNA repair protein RAD52 homolog (P43351 whole entry): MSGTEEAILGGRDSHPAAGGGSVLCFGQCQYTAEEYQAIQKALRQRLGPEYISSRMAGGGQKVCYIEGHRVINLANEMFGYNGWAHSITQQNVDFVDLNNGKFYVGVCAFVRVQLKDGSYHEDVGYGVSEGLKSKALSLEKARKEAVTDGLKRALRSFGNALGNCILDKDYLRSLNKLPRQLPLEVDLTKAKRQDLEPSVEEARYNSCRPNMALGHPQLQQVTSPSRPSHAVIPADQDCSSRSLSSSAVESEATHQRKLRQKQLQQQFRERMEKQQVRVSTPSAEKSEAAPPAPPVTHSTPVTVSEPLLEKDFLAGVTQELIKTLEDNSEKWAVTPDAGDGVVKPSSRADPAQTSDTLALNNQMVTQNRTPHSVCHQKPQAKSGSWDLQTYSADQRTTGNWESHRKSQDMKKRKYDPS

Caspase-9 = target: T3, Caspase-9 (Homo sapiens, UniProt P55211); experiment: inhibitors of purified CASP9 protease – biochemical, fluorescence, plate reader, cherry-picked samples, selectivity assay for caspase-6 inhibitor project, dose response (AID 743293)
T3 sequence (P55211 whole entry): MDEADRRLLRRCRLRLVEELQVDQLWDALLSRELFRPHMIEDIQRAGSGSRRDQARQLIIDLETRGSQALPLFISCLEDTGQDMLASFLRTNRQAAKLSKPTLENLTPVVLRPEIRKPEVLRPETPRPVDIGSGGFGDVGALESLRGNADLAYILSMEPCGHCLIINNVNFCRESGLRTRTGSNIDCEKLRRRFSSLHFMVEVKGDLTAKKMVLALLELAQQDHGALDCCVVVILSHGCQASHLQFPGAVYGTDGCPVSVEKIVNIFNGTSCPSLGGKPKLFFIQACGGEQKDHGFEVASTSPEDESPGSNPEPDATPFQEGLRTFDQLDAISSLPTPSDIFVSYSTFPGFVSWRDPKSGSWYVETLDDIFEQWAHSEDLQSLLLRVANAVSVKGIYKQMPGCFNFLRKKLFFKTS

INS1 = experiment: INS-1E survival protection against cytokine death – cell-based, luminescence, retest, dose response (AID 449756); format: functional; details: Rattus norvegicus;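 also: cell death triggered by IL-1 beta plus TNF-alpha plus IFN-gamma mixture; protective hits raise ATP signal compared with cytokine alone wells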
[12] = HEK-293T viability loss, compound-treated – cell-based, uHTS hits, cytotoxicity control for B/T-cell NF-kB inhibitor project, dose response (AID 489019); format: functional;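 also: IC50 reflects cytotoxicity as loss of cell viability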
Protein RecA = target: T4, Protein RecA (Mycobacterium tuberculosis, UniProt P9WHJ3); experiment: Fluorescence Cell-Free Homogeneous Dose Retest to Identify Inhibitors of RecA-Intein Splicing Activity. [Related pubchem assays (depositor defined):AID2097, AID2223, AID489010, AID492950]; format: functional
T4 sequence (P9WHJ3 whole entry): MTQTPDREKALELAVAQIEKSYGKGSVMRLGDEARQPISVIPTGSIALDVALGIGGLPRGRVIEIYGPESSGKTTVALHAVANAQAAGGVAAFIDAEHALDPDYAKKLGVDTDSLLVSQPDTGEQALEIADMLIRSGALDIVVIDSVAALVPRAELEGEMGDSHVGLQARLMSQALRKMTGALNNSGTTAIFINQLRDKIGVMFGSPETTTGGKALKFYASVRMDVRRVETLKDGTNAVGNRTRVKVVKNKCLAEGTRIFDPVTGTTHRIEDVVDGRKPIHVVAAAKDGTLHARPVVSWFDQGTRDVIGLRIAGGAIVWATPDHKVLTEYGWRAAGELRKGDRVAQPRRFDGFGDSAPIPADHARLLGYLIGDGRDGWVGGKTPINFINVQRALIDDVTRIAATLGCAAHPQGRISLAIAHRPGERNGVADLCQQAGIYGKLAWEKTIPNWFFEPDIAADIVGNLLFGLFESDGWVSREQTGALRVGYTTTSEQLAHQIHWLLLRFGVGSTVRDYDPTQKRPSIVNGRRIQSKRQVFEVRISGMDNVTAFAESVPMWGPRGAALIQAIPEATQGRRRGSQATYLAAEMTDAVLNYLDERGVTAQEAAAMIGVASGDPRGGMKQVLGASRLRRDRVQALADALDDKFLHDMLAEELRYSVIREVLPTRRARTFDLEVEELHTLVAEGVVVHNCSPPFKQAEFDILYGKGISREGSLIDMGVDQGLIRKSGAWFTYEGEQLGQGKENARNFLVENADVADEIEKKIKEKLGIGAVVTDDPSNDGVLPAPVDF

Jurkat = experiment: blockers of NF-kB activation in T cells – Jurkat, luciferase reporter, luminescence, B- and T-cell, dose response (AID 489004); format: functional, cell-based; details: Homo sapiens;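 also: NF-kB luciferase reporter Jurkat cells stimulated with PMA plus ionomycin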
Caspase-8 = Caspase-8 (Homo sapiens, UniProt Q14790); experiment: inhibitors of purified CASP8 protease – biochemical, Z-IETD-R110 fluorescence, cherry-picked samples, selectivity assay for caspase-6 inhibitor project, dose response (AID 743294)
Chain of Caspase-8 (Q14790 217-374 limits assumed): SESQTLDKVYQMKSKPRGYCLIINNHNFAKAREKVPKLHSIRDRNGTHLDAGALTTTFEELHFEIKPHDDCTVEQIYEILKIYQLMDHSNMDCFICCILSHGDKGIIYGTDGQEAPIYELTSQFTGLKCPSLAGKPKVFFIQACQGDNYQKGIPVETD
Chain of Caspase-8 (Q14790 385-479 limits assumed): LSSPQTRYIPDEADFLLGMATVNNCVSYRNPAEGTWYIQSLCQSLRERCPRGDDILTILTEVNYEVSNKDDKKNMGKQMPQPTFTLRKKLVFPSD

Caspase-7 = target: T5, Caspase-7 (Homo sapiens, UniProt P55210); experiment: caspase-7 enzyme inhibition, selectivity check – biochemical, DEVD-R110 fluorescence, cherry-pick, selectivity assay for caspase-6 inhibitor project, dose response (AID 743295); format: functional
T5 sequence (P55210 whole entry): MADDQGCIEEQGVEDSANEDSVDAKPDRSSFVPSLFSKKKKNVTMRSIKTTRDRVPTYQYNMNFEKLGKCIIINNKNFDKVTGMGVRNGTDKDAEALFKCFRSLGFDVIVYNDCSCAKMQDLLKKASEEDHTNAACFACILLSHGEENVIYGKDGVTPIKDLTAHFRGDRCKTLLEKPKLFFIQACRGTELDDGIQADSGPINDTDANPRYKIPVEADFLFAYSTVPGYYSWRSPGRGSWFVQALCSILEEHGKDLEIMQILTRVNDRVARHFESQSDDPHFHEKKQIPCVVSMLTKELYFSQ

[13] = target: T6, Sentrin-specific protease 8 (Homo sapiens, UniProt Q96LD8); format: functional
T6 sequence (Q96LD8 whole entry): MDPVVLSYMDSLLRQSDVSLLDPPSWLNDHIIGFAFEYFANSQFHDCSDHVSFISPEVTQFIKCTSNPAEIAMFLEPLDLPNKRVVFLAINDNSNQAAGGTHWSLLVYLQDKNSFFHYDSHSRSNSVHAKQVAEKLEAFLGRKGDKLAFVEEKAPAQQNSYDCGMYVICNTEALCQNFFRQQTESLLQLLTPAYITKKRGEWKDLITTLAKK

Caspase-6 = target: T7, Caspase-6 (Homo sapiens, UniProt P55212); experiment: inhibition of CASP6 peptide cleavage – biochemical, VEID-R110 fluorescence, cherry-pick, dose response (AID 720632)
T7 sequence (P55212 whole entry): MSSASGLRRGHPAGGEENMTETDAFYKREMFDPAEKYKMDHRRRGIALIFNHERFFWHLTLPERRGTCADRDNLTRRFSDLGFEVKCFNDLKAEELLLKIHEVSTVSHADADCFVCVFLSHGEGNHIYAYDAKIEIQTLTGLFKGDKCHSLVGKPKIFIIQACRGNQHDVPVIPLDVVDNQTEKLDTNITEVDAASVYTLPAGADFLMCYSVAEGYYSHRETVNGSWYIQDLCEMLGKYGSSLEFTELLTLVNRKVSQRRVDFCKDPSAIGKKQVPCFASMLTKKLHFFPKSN

[14] = microbe, parasite or virus in culture; format: functional; details: Mycobacterium tuberculosis
[15] = target: T6, Sentrin-specific protease 8; format: functional; remark: listed apart in the source
[16] = target: Mitogen-activated protein kinase 10 (Homo sapiens, UniProt P53779); experiment: Dose response biochemical screening assay for inhibitors of c-Jun N-Terminal Kinase 3 (JNK3). [Related pubchem assays: 746 ]
Chain of Mitogen-activated protein kinase 10 (P53779 whole entry): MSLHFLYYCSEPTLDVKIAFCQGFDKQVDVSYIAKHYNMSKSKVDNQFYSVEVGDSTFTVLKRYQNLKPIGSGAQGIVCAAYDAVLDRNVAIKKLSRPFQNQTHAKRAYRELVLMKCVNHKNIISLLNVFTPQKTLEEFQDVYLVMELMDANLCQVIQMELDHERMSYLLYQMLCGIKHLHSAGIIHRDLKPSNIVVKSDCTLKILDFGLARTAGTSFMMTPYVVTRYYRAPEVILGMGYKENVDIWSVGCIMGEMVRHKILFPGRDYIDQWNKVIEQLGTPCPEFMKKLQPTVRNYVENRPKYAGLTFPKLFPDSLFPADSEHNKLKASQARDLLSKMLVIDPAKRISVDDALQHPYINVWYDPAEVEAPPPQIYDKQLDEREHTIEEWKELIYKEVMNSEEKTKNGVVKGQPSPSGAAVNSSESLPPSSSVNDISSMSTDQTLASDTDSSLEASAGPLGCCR

A-375 [17] = experiment: proliferation inhibition in MITF-low A375 cells – cell-based, cherry-pick samples, set 2, counter-screen for MITF modulator project, dose response (AID 540335); format: functional; details: Homo sapiens
A-375 [18] = experiment: MITF: Counter assay: A375 proliferation Measured in Cell-Based System Using Plate Reader - 2084-03_Inhibitor_Dose_DryPowder_Activity. [Related pubchem assays (depositor defined):AID488944]; format: functional; details: Homo sapiens

Chain of Voltage-gated inwardly rectifying potassium channel KCNH2 (Q12809 whole entry): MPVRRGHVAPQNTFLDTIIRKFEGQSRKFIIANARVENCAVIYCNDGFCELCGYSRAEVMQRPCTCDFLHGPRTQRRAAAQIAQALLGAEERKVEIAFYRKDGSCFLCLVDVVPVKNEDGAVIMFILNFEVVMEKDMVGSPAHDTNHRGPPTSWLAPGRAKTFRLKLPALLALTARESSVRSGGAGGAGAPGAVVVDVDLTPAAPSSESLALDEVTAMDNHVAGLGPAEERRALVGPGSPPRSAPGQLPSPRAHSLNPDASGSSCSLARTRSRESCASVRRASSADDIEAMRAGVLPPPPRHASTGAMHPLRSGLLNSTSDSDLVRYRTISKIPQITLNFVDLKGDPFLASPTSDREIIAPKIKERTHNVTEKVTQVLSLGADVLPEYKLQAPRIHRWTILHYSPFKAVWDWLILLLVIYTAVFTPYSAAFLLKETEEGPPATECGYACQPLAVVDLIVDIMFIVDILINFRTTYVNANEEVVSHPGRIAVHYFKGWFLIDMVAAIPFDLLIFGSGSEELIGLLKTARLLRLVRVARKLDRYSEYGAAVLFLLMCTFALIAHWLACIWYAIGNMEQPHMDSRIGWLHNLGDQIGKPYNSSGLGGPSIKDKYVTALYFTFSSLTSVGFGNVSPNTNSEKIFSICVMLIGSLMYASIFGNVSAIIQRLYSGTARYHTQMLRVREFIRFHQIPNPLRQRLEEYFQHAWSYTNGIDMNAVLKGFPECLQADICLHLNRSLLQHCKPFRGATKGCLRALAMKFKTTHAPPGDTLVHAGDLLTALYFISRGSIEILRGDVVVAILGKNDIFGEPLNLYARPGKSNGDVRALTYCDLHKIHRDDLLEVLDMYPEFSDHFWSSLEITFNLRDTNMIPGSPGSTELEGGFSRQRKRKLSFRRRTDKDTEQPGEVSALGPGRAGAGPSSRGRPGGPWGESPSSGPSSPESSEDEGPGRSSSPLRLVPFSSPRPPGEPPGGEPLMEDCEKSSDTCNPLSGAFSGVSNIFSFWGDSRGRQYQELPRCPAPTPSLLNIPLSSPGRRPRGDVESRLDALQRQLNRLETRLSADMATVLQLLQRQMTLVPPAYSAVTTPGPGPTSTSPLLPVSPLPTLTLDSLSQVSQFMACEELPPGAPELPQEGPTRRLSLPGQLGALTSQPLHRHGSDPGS

For `O=C(CN1CCCCC1)Nc1cc(Cl)ccc1Cl`, the AC50 (Escherichia coli) was 144 µM (active).
For `N#CC(Cc1ccc(O)c(O)c1)C(=O)N1CCc2ccccc21` (stereo unspecified), the AC50 [1] was 15.8 µM (inconclusive).
With `Clc1ccc2c(N/N=C/c3ccccc3Br)ccnc2c1` the EC50 (Mu-type opioid receptor) was > 92.5 µM (inactive), the EC50 [2] was > 92.5 µM (inactive) and the CC50 (Vero) was 7.23 µM (active). For the same compound, the IC50 (Cysteine protease ATG4B) was 3.17 µM (active), the IC50 (Phospholipase A2) was 1.75 µM (active) and the “Absolute IC50 (CHOP)” value [3] was 10 µM. The “Absolute IC50 (XBP1)” value (X-box-binding protein 1) was 10 µM, the EC50 [4] was > 92.5 µM (inactive) and the AC50 [5] was 39.6 µM (active). The EC50 [6] was > 60 µM (not active), the EC50 [7] was 1.02 µM (active) and the AC50 [8] was 7.49 µM (active). The AC50 [9] was 16 µM (active).
In the case of `COc1cc(NC(C)CCCN)c2ncccc2c1` (stereo unspecified) [PRIMAQUINE PHOSPHATE], the AC50 [10] is reported as 9.98 µM (active), the AC50 [11] is reported as 5.55 µM (active) and the AC50 (Caspase-9) is reported as > 70 µM (inactive). The AC50 (INS1) was 3.83 µM (active), the IC50 [12] was > 80 µM (inactive) and the EC50 (Protein RecA) was 1.17 µM (active). For the same compound, the IC50 (Jurkat) was 38 µM (inactive), the AC50 (Caspase-8) was 57.9 µM (active) and the AC50 (Caspase-7) was 4.07 µM (active). The IC50 [13] was 0.935 µM (active), the AC50 (Caspase-6) was 1.9 µM (active) and the CC50 [14] was > 40 µM (active). For the same compound, the IC50 [15] was 0.987 µM (active).
In the case of `Cc1ccc2nc(Cc3ccc(N)cc3)oc2c1`, the IC50 [16] is reported as 49.9 µM (not active), the AC50 (A-375 [17]) is reported as > 35 µM (active) and the AC50 (A-375 [18]) is reported as > 35 µM (active).
